From patent US7354904B2, “Bacteriocin inducer peptides” (priority 2005, dated 2008)

How the values were obtained:
[1] = tested on: C. jejuni; test: Spot Test, antagonistic activity of isolated signal peptides; type: cell-based, Campylobacter jejuni; details: isolated signal peptide
Experimental: (§1) The antagonistic activity of the bacteriocins produced when using the signal peptide and an inducer strain of bacteria against C. jejuni and S. enteritidis was assessed using a Spot Test. The steps included taking various concentrations of pure preparation (μg/ml) of the bacteriocin in approximately 10 microliters of volume plated onto blood-supplemented Campylobacter agar or Nutrient agar (MPA or Meta Peptone Agar) previously seeded with cells of target bacteria. Plates containing cultures of C. jejuni were grown at about 42° C., under microaerobic conditions. Plates containing S. enteritidis were grown at about 37° C. under aerobic conditions. Activity of the bacteriocin was expressed in arbitrary units (AU) per one milliliter of the preparation at which a visible zone of inhibition of the growth of culture appears (Henderson et al., Archives of Biochemistry and Biophysics, Volume 295, 5-12, 1992; herein incorporated by reference). Specific activity can also expressed as arbitrary units per milligram of pure bacteriocin.
(§2) Its activity was about 200 AU/ml and its molecular weight was about 2.5 kDa, as determined by SDS-PAGE electrophoresis. The isoelectric point (pI) was about 7.9 (FIGS. 1A and 1B).
(§3) Its molecular weight was about 3.1 kDa as measured by SDS-PAGE and the isoelectric point (pI) was about 8.1 (FIGS. 2A and 2B).
(§4) Its molecular weight was about 2.1 kDa as determined by SDS-PAGE electrophoresis and its isoelectric point was about 8.9 (FIGS. 3A and 3B).

[2] = tested on: S. enteritidis; test: as above; type: cell-based; details: isolated signal peptide
Experimental: as §1, §2, §3, §4

[3] = Isoelectric point by isoelectrofocusing; type: physicochemical
Text: FIGS. 1A and 1B are photographs showing the direct detection of signal peptide and bacteriocin OR-7 after SDS-PAGE (A) and isoelectrofocusing (B). […] In FIG. 1A Lane 1-Molecular Mass Markers LMW Range 2,100-12,500 (Amersham Pharmacia Biotech): 2,100; 5,780; 8,400; 12,500 Da. […] Lane 3 contained pI standards (Protein Test Mixture, I Marker Proteins, Serva): 10.0, 9.2, 8.1, 6.9, 5.5, 4.3.
FIGS. 2A and 2B are photographs showing direct detection of signal peptide and bacteriocin 50-52 after SDS-PAGE (A) and isoelectrofocusing (B). […] Lane 3 contained pI standards (Protein Test Mixture, I Marker Proteins, Serva): 10.0, 8.1, 7.9, 6.4, 5.5, 4.3, 4.1, and 3.8.
FIGS. 3A and 3B are photographs showing the direct detection of signal peptide and bacteriocin 760 after SDS-PAGE(A) and isoelectrofocusing (B). […] Lane 3 contained pI standards (Protein Test Mixture, I Marker Proteins, Serva): 10.0, 8.1, 7.9, 6.4, 5.5, 4.3, 4.1, and 3.8.
At the end of 14 hours the supernatant from the cultures was placed into 500 ml centrifuge flasks with about one milliliter of regenerated Sepharose SP Fast Flow (v/v 500: 1). This was incubated for approximately 1 hour at room temperature with stirring. The suspension was then washed with about 100 ml of a 0.2 M TRIS-HCl buffer pH approximately 6.4. The bacteriocins were eluted by centrifugation with about 100 ml of approximately 0.2 M K2HPO4, pH of about 5.8 at about 7,000×g for approximately 10 minutes. Antagonistic activity of the bacteriocin fractions against C. jejuni and S. enteritidis was assessed using a Spot Test as described above. The level of purity of the bacteriocin fractions was determined by SDS-PAGE. The isoelectric points of the fractions were determined by isoelectric focusing. Concentrations of protein for all bacteriocin fractions were determined at 215 nm using a spectrophotometer.

[4] = tested on: Lactobacillus salivarius PVD-32; test: Influence of signal peptide on bacteriocin OR-7 production, flask culture (fraction protein at 215 nm, activity by Spot Test against C. jejuni and S. enteritidis); type: cell-based
[5] = tested on: Streptococcus cricetus LWP 760; test: Influence of signal peptide on bacteriocin 760 production, flask culture (fraction protein at 215 nm, activity by Spot Test against C. jejuni and S. enteritidis); type: cell-based
[6] = 10% B-B, producer PVD-32 + inducer LWP-252, LWP 50-52 peptide 0.1 mg
[7] = LWP 760 + LWP 320, 0.1 mg LWP 50-52 peptide

TNVTKSWWVLAGCNQVVASNCNCGNVKGLT (listed as Enterococcus faecium) [LWP 50-52 Signal Peptide, signal peptide isolated from Enterococcus faecium LWP 50-52, stimulates bacteriocin 50-52 production]
antagonistic activity [1]: did not possess antagonistic activity | antagonistic activity [2]: did not possess antagonistic activity | isoelectric point (pI) [3]: about 8.1 | Activity [4, 6]: 51,200 AU/ml | Protein Concentration [4, 6]: 0.17 Mg/ml | Protein increase vs. Control [4, 6]: 0.85 | Specific Activity [4, 6]: 301,176 AU/mg | mg protein/liter [4, 6]: 56.1 mg protein/liter | yield of bacteriocin OR-7 versus the control ([4]; signal peptide of another strain added to PVD-32 + LWP-252): does not increase | Activity [5, 7]: 1,638,840 AU/ml | Increase in amount of protein vs. control [5, 7]: 1 | Protein Concentration [5, 7]: 0.30 mg/mL | Protein Produced from 1 liter Culture Fluid [5, 7]: 99 mg | Specific Activity [5, 7]: 5,462,666 Au/mg | yield of bacteriocin 760 versus control ([5]; signal peptide of another strain added to LWP 760 + LWP 320): did not increase
